Here are results for one molecule from publication PMC7894522, “Structure Based Design of Bicyclic Peptide Inhibitors of RbAp48” (Angewandte Chemie (International Ed. in English), 2020).

One test deals with U2OS cells. The test is described as follows: Morphological cell painting assay. The format is cell-based. The conditions noted are these: U2OS cells, 20 h, 579 parameters, fraction of significantly changed parameters vs DMSO; 10, 3 or 1 µM. The text has this:
Encouraged by the promising results from the pulldown experiment, and in order to get insight into bioactivity and possible mode of action, we analyzed peptide 33 in a morphological cell painting assay. The cell painting assay is a target agnostic assay which determines a cells morphological profile after treatment with a compound of interest and compares it to the profiles of a set of reference compounds. ^[22] By identifying reference compounds with a similar profile a hypothesis of the compounds mode of action can be generated based on their annotated targets. ^[23] U2OS cells were treated with our compound and 579 parameters were analyzed. […] We therefore synthesized a variant modified with an N‐terminal TAT sequence to enhance its permeability (compound 49, see Table 1 and Supplemental Figure 4). ^[24] […] Applying compound 49 to the cell painting assay led to an induction of 5.9 % and the corresponding profile was compared to the set of 3000 reference compounds. […] To validate this hypothesis, we exposed U2OS cells to compound 49 and evaluated the levels of p53 by Western blot. […] The exact mechanism by which the compounds elevate levels of p53 requires further investigation. However, it has previously been shown that the NuRD complex, of which RbAp48 is a core component, is able to deacetylate p53 and thereby modulate its stability. ^[26] The effect is mediated by the MTA family of proteins from which the compounds described here are derived. […]
The described assay follows closely the method described by Bray et al. Initially, 5 µl U2OS medium were added to each well of a 384 -well plate (PerkinElmer CellCarrier -384 Ultra). Subsequently, U2OS cell were seeded with a density of 1600 cells per well in 20 µl medium. The plate was incubated for 10 min at the ambient temperatu re, followed by an a dditional 4 h incubation (37 °C, 5 % CO2). Compound treatment was performed with the Echo 520 acoustic dispenser (Labcyte) at final concentrations of 10 µM, 3 µM or 1 µM. Incubation with compound was performed for 20 h (37 °C, 5 % CO2). Subsequently, mitoc hondria were stained with Mito Tracker Deep Red (Thermo Fisher Scientific, Cat. No. M22426). The Mito Tracker Deep Red stock solution (1 mM) was diluted to a final concentration of 100 nM in prewarmed medium. The medium was removed fr om the plate leaving 1 0 µl residual volume and 25 µl of the Mito Tracker solution were added to each well. 22 The plate was incubated for 30 min in darkness (37 °C, 5 % CO2). To fix the cells 7 µl of 18.5 % formaldehyde in PBS were added, resulting in a fi nal formaldehyde conce ntration of 3.7 %. Subsequently, the plate was incubated for another 20 min in darkness (RT) and washed three times with 70 µl of PBS. (Biotek Washer Elx405). Cells were permeabilized by addition of 25 µl 0.1 % Triton X -100 to each well, followed by 15 min incubation (RT) in darkness. The cells were washed three times with PBS leaving a final volume of 10 µl. To each well 25 µl of a staining solution were added, which contains 1 % BSA, 5 µl/mL Phalloidin (Thermo Fisher Scientific, A123 81), 25 µg/ml Concanav alin A (Thermo Fisher Scientific, Cat. […]
conjugate (Thermo Fisher Scientific, Cat. No. W11262) and […] SYTO 14 solution (Thermo Fisher Scientific, Cat. No. S7576). The plate is incubated for 30 min (RT) in darkness and washed three times with 70 µl PBS. After the final washing step the PBS was not aspirated. The plates were sealed and centrifuged for 1 min at 500 rpm.
The plates were prepare d in triplicates with shifted layouts to reduce plate effects and imaged using a Micro XL High-Content Screening System (Molecular Devices) in 5 channels (DAPI: Ex350 -400/ Em410- […]
The generated images were processed with the CellProfiler package (https://cellprofiler.org/, version 3.0.0) on a computing cluster of the Max Planck Society to extract 1716 cell features (parameters) per microscope site. The data was then further aggregated as medians per well (9 sites -> 1 well), then […]

The target of the next test is RbAp48 (Homo sapiens, UniProt Q09028). The test is described as follows: Isothermal titration calorimetry (direct and competitive). Format: binding. Also noted: Full length RbAp48 was cloned; His tag followed by 3C cleavage site (N, cleaved yes); made in house; host or cells: Sf9 insect cells. The conditions noted are these: competitive ITC with weak ligand 40. Here is the method:
The weak ligand interferes with binding of the strong ligand allowing the use of higher concentrations and therefore stronger signal. The actual affinity and thermodynamic parameters can then be calculated from the measured values.[ ^20 , ^21 ] The long linear peptide 2, monocyclic peptide 8, and bicyclic peptide 33 were analysed using this method and the results are reported in Table 2 (See Figure 4 A and Supplemental Figure 13–16). […] An effect which could not clearly be observed by the FP assay as it's lower limits were reached.
Protein expression and purification
RbAp48 was expressed and purified by the Dortmund Protein Facility. Full length RbAp48 was cloned into a pOPIN vector ligating it to an N-terminal His tag followed by a 3C cleavage site. The protein was expressed from Sf9 cells for 48 h. Cells were harvested and lysed and the protein was purified by loading onto a HisTrap FF crude 5 ml column followed by on-column cleavage using Precission protease. The cleaved protein was then further purified using a HiLoad 26/60 Superdex 200 column.
Fluorescence polarization assay […]
Isothermal Titration Calorimetry
Isothermal titration calorimetry measurements w ere performed using a Microcal ITC-200 device. The buffer for all measurements consisted of 20 mM Tris, 150 mM NaCl, pH 7.5 and all measurements were performed at 25°C in duplicate except for 8. RbAp48 was dialyzed overnight using a 10 kDa MWCO Slide-A-lizer dialysis membrane and peptide samples were dissolved in the dialysis buffer. Direct measurements of 40 were perfomed by titrating the peptide ( 800 µM) into the cell containing RbAp48 (40 µM) using 2 µl injection after an initial injection of 0.5 µl. […]
by competitive ITC where the protein is premixed with a weak ligand ( 40).[1] Competitive measurements were performed by titrating 2, 8 or 33 (300 µM) into the cell containing RbAp48 (30 µM) and 40 (416 µM). Other conditions were the same as for the direct measurement described above.
Ki was calculated according using the following formula: […]
In general terms: In ITC the heat of successive injections is recorded.

Starred links: 1 amine or outer side, 2 acyl side, 3 side chain; linkers in the order of their positions; H or OH if unused. Positions of bridges follow the written chain, without caps; N, C: chain ends. Residues, ends and D or L forms follow the SMILES beside them. TBMB = c1c(C[*:1])cc(C[*:3])cc1C[*:2]

RbAp48, sequence (Q09028 whole entry): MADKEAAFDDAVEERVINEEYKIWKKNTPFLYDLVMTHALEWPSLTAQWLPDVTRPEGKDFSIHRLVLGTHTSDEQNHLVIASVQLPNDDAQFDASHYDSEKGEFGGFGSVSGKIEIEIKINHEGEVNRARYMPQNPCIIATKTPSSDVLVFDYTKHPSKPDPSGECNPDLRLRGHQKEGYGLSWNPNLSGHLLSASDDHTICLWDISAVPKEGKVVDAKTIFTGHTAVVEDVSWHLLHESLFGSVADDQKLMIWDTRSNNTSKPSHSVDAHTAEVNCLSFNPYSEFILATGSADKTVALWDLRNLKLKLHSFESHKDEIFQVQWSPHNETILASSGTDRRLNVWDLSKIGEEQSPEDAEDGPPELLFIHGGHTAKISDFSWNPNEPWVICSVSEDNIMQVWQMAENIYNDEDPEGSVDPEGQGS

Consider `CC(=O)N[C@H]1CSCc2cc3cc(c2)CSC[C@@H](C(=O)N[C@@H](C)C(N)=O)NC(=O)[C@@H]2CCCN2C(=O)[C@H](CCCCN)NC(=O)[C@H](Cc2ccc(O)cc2)NC(=O)[C@@H]2CCCN2C(=O)[C@H](CCCNC(=N)N)NC(=O)[C@H](CCCNC(=N)N)NC(=O)[C@H](C)NC(=O)[C@H](CSC3)NC(=O)[C@H](CCCNC(=N)N)NC(=O)[C@H](CCCCN)NC(=O)[C@H]([C@@H](C)O)NC1=O` [Peptide 33] (Ac-CTKRCARRPYKPCA-NH2; linker 1-5-13 via TBMB), for which the induction result in the test with U2OS cells was “no induction”. At RbAp48, binding was characterised by a dissociation constant (Kd) of 8.56 nM.

For orientation: Kd means the concentration at which binding is half-saturated. A low value points to higher affinity.
